Experimental data: ChEMBL document CHEMBL1909046, “DrugMatrix in vitro pharmacology data”

How the values were obtained:
[1] = biological target: T1, Alpha-1D adrenergic receptor (Homo sapiens, UniProt P25100); assay type: cell membranes, HEK293, Membrane; also: in other assays of this panel Not Active means under 50% inhibition at 10 µM
T1 sequence (P25100 whole entry): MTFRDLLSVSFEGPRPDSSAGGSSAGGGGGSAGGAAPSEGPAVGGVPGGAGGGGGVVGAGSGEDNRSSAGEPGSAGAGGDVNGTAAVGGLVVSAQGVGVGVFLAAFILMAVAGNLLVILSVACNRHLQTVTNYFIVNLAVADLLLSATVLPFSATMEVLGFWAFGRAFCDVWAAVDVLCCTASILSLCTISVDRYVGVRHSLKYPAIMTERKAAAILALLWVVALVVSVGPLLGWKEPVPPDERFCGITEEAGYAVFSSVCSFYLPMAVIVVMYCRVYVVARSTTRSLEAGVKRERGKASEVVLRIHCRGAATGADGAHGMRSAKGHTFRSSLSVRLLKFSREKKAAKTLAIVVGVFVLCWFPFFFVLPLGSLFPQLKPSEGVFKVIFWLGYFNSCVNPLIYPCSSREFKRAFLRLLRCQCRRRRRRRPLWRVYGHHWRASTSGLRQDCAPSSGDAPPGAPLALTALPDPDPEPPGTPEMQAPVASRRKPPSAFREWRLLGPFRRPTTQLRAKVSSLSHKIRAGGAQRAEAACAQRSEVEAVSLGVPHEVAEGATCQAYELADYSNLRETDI

[2] = biological target: Vascular endothelial growth factor receptor 1 (Homo sapiens, UniProt P17948); test: biochemical; assay type: cell-based, HUVEC; conditions: huvec; also: in other assays of this panel Not Active means under 50% inhibition at 10 µM
Sequence of Vascular endothelial growth factor receptor 1 (P17948 whole entry): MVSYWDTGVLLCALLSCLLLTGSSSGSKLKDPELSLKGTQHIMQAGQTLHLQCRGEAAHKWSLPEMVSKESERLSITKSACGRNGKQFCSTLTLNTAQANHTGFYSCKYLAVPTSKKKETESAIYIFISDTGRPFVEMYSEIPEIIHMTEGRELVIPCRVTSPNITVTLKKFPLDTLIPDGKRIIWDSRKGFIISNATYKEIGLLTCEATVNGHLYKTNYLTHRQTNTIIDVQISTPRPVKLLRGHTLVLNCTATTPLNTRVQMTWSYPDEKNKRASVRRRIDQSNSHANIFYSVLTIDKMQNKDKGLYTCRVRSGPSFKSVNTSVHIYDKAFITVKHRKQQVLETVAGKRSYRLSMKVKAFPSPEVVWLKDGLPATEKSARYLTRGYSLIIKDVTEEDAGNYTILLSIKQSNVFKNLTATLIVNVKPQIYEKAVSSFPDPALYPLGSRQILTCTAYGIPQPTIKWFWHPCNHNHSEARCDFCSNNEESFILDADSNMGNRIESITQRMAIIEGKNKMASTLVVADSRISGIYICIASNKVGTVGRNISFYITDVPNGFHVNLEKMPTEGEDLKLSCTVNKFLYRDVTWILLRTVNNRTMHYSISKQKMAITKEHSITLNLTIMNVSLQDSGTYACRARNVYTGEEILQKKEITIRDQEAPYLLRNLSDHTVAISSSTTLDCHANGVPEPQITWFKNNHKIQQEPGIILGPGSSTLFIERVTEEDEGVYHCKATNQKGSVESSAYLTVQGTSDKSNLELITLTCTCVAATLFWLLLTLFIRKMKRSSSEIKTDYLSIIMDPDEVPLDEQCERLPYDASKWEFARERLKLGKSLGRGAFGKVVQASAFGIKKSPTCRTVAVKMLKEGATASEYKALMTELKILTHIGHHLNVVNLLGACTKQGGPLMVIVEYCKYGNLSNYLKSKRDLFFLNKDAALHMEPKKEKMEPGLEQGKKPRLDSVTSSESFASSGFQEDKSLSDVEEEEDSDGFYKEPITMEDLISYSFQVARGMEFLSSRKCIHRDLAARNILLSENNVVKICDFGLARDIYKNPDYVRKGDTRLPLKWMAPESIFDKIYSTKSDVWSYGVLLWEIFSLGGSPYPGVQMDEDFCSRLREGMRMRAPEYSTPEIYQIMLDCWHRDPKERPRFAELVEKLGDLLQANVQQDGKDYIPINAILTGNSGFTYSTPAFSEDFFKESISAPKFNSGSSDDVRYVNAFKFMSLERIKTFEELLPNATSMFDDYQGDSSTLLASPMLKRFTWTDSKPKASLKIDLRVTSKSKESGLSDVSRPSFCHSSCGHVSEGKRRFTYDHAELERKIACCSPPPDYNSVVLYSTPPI

[3] = DRUGMATRIX: Glutamate, NMDA, Agonism radioligand binding (ligand: [3H] CGP-39653); assay type: cell membranes, Rattus norvegicus, Wistar, Cerebral cortex, Membrane; conditions: Not Active = under 50% inhibition at 10 µM
Cathepsin G = biological target: T2, Cathepsin G (Homo sapiens, UniProt P08311); assay type: tissue-based; conditions: neutrophil;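 also: inhibition of Cathepsin G enzyme activity, tested on an AMC-conjugated peptide substrate; in other assays of this panel Not Active means under 50% inhibition at 10 µM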
T2 sequence (P08311 whole entry): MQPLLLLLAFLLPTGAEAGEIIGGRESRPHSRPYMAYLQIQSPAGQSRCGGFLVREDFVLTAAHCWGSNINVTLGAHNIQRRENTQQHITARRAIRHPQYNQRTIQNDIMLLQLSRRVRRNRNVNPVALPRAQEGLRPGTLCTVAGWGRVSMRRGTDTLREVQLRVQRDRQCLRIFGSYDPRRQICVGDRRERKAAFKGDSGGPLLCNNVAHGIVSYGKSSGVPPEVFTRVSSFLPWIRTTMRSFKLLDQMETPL

[4] = biological target: Tyrosine-protein kinase Fyn (Homo sapiens, UniProt P06241); test: biochemical; assay type: cell-based, Insect cells;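 also: enzymatic inhibition of Fyn kinase activity measured with Poly(Glu:Tyr) as the phosphorylation substrate; in other assays of this panel Not Active means under 50% inhibition at 10 µM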
Sequence of Tyrosine-protein kinase Fyn (P06241 whole entry): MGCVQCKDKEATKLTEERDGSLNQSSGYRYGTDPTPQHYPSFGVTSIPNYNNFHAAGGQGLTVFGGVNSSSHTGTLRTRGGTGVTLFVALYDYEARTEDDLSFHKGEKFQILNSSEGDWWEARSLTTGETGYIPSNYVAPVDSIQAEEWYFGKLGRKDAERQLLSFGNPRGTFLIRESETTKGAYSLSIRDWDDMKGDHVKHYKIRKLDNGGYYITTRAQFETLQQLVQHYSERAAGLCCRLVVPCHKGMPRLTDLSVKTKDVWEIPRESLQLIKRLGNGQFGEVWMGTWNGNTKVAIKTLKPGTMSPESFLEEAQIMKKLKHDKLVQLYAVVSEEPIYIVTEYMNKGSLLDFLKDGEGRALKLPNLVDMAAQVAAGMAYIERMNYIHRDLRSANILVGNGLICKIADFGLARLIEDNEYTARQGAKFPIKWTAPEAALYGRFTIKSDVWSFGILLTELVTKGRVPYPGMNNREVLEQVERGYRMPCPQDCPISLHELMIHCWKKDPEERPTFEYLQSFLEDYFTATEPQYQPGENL

Cytochrome P450 2C19 = Cytochrome P450 2C19 (Homo sapiens, UniProt P33261); conditions: bti-tn-5b1-4; also: in other assays of this panel Not Active means under 50% inhibition at 10 µM
Sequence of Cytochrome P450 2C19 (P33261 whole entry): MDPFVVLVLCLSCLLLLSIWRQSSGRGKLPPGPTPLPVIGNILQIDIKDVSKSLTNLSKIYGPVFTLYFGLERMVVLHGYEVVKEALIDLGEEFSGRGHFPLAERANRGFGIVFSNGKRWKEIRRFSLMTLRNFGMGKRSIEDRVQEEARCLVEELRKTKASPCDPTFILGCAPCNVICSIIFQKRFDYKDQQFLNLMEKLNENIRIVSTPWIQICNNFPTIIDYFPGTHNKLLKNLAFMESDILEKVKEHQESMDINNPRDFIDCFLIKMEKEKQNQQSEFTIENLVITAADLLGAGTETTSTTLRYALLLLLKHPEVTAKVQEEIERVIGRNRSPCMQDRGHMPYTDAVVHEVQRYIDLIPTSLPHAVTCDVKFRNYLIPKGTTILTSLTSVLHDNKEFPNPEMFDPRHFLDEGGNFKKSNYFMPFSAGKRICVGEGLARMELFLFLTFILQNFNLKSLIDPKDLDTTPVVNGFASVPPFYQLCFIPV

Compound	IC50 ([1]; hek293)	IC50 [2]	IC50 [3]	Ki [3]	IC50 (Cathepsin G)	IC50 ([4]; insect cells)	IC50 (Cytochrome P450 2C19)	Ki (Cytochrome P450 2C19)	Ki ([1]; hek293)	Ki [2]	Ki (Cathepsin G)	Ki ([4]; insect cells)	IC50 ([1]; read-out: IC50) [µM]	Ki ([1]; read-out: Ki) [µM]	IC50 ([4]; read-out: IC50) [µM]
CC[C@H](C)[C@H]1O[C@]2(C=C[C@@H]1C)C[C@@H]1C[C@@H](C/C=C(\C)[C@@H](O[C@H]3C[C@H](OC)[C@@H](O[C@H]4C[C@H](OC)[C@@H](O)[C@H](C)O4)[C@H](C)O3)[C@@H](C)/C=C/C=C3\CO[C@@H]4[C@H](O)C(C)=C[C@@H](C(=O)O1)[C@]34O)O2.CO[C@H]1C[C@H](O[C@H]2[C@H](C)O[C@@H](O[C@@H]3/C(C)=C/C[C@@H]4C[C@@H](C[C@]5(C=C[C@H](C)[C@@H](C(C)C)O5)O4)OC(=O)[C@@H]4C=C(C)[C@@H](O)[C@H]5OC/C(=C\C=C\[C@@H]3C)[C@]54O)C[C@@H]2OC)O[C@@H](C)[C@@H]1O [ABAMECTIN]	Not Active	Not Active	Not Active	Not Active	Not Active	Not Active	Not Active	Not Active	–	–	–	–	–	–	–
C[C@@H]1O[C@@H](O[C@@H]2C=C3CC[C@@H]4[C@H](CC[C@]5(C)[C@@H](c6ccc(=O)oc6)CC[C@]45O)[C@@]3(C)CC2)[C@H](O)[C@H](O)[C@H]1O [PROSCILLARIDIN]	Not Active	Not Active	Not Active	Not Active	Not Active	Not Active	Not Active	Not Active	–	–	–	–	–	–	–
CN(C)[C@@H]1C(O)=C(C(N)=O)C(=O)[C@@]2(O)C(O)=C3C(=O)c4c(O)ccc(Cl)c4[C@@](C)(O)[C@H]3C[C@@H]12 [CHLORTETRACYCLINE]	Not Active	Not Active	Not Active	Not Active	Not Active	Not Active	Not Active	Not Active	–	–	–	–	–	–	–
NYSTATIN	Not Active	Not Active	Not Active	Not Active	Not Active	Not Active	Not Active	Not Active	Not Active	Not Active	Not Active	Not Active	–	–	–
Cc1cc2c(OCC(CNC(C)(C)C)OC(=O)c3ccccc3)cccc2[nH]1 (centres undefined) [BOPINDOLOL]	Not Active	Not Active	Not Active	Not Active	Not Active	Not Active	Not Active	Not Active	–	–	–	–	–	–	–
CC(=O)Oc1ccc(C(c2ccc(OC(C)=O)cc2)c2ccccn2)cc1 [BISACODYL]	Not Active	Not Active	Not Active	Not Active	Not Active	Not Active	Not Active	Not Active	–	–	–	–	–	–	–
C[C@@H](CO)NC(=O)[C@@H]1C=C2c3cccc4[nH]cc(c34)C[C@H]2N(C)C1 [ERGONOVINE]	Not Active	Not Active	Not Active	Not Active	Not Active	Not Active	Not Active	Not Active	–	–	–	–	–	–	–
Nc1ccn([C@@H]2O[C@H](CO)[C@@H](O)C2(F)F)c(=O)n1 [GEMCITABINE]	Not Active	Not Active	Not Active	Not Active	Not Active	Not Active	Not Active	Not Active	–	–	–	–	–	–	–
COc1cc(N)c(Cl)cc1C(=O)NC1CCN(CCCOc2ccc(F)cc2)CC1OC (centres undefined) [CISAPRIDE]	–	Not Active	Not Active	Not Active	Not Active	Not Active	Not Active	Not Active	–	–	–	–	0.189	0.093	–
CCC1(CCC(C)C)C(=O)NC(=O)NC1=O [AMOBARBITAL]	Not Active	Not Active	Not Active	Not Active	Not Active	Not Active	Not Active	Not Active	–	–	–	–	–	–	–
O=C(O)c1cccnc1Nc1cccc(C(F)(F)F)c1 [NIFLUMIC ACID]	Not Active	Not Active	Not Active	Not Active	Not Active	Not Active	Not Active	Not Active	–	–	–	–	–	–	–
Cn1c(=O)c2[nH]cnc2n(C)c1=O.Cn1c(=O)c2[nH]cnc2n(C)c1=O.NCCN [AMINOPHYLLINE]	Not Active	Not Active	Not Active	Not Active	Not Active	Not Active	Not Active	Not Active	–	–	–	–	–	–	–
GENTAMICIN	Not Active	Not Active	Not Active	Not Active	Not Active	Not Active	Not Active	Not Active	Not Active	Not Active	Not Active	Not Active	–	–	–
C=CCc1ccc(O)c(OC)c1 [EUGENOL]	Not Active	Not Active	Not Active	Not Active	Not Active	Not Active	Not Active	Not Active	–	–	–	–	–	–	–
N=C(N)NC(=O)Cc1c(Cl)cccc1Cl [GUANFACINE]	Not Active	Not Active	Not Active	Not Active	Not Active	Not Active	Not Active	Not Active	–	–	–	–	–	–	–
CC(C)NNC(=O)c1ccncc1 [IPRONIAZID]	Not Active	Not Active	Not Active	Not Active	Not Active	Not Active	Not Active	Not Active	–	–	–	–	–	–	–
CC(C(=O)O)c1cccc(Oc2ccccc2)c1 (centres undefined) [FENOPROFEN]	Not Active	Not Active	Not Active	Not Active	Not Active	Not Active	Not Active	Not Active	–	–	–	–	–	–	–
O=C(O)CCNC(=O)c1ccccc1 [BETAMIPRON]	Not Active	Not Active	Not Active	Not Active	Not Active	Not Active	Not Active	Not Active	–	–	–	–	–	–	–
C#C[C@]1(OC(C)=O)CC[C@H]2[C@@H]3CCC4=C[C@@H](OC(C)=O)CC[C@@H]4[C@H]3CC[C@@]21C [ETHYNODIOL DIACETATE]	Not Active	Not Active	Not Active	Not Active	Not Active	Not Active	Not Active	Not Active	–	–	–	–	–	–	–
Oc1cccc(O)c1O [PYROGALLOL]	Not Active	Not Active	Not Active	Not Active	Not Active	–	Not Active	Not Active	–	–	–	–	–	–	0.997
O=C/C=C/c1ccccc1	Not Active	Not Active	Not Active	Not Active	Not Active	Not Active	Not Active	Not Active	–	–	–	–	–	–	–
CN/C(=N\CCSCc1nc[nH]c1C)NC#N [CIMETIDINE]	Not Active	Not Active	Not Active	Not Active	Not Active	Not Active	Not Active	Not Active	–	–	–	–	–	–	–
C[n+]1ccc(-c2cc[n+](C)cc2)cc1.[Cl-].[Cl-] [PARAQUAT DICHLORIDE]	Not Active	Not Active	Not Active	Not Active	Not Active	Not Active	Not Active	Not Active	–	–	–	–	–	–	–
CCCN(CCC)S(=O)(=O)c1ccc(C(=O)O)cc1 [PROBENECID]	Not Active	Not Active	Not Active	Not Active	Not Active	Not Active	Not Active	Not Active	–	–	–	–	–	–	–
C#CC1(O)CC[C@H]2[C@@H]3CCC4=CC(=O)CC[C@@H]4[C@H]3CC[C@@]21CC (some centres undefined) [NORGESTREL]	Not Active	Not Active	Not Active	Not Active	Not Active	Not Active	Not Active	Not Active	–	–	–	–	–	–	–
